According to patent publication EP1377579B1 (Aventis Pharmaceuticals Inc., priority 2000, dated 2002):
pIC50: −log10 of the molar value. Where a name gives a salt, the structure may show the parent alone.

Tests used:
cdk4/cyclin D1 = cdk4/cyclin D1 (Homo sapiens, UniProt P11802); assay: Cyclin-dependent kinase assay, cdk4/cyclin D1; assay type: biochemical; conditions: cyclin D1/cdk4; GST-pRb substrate, 10 µM ATP
MDA-MB-435 = assay: In vitro proliferation assay (MTT), MDA-MB-435; assay type: cell-based, human; conditions: Homo sapiens, MDA-MB-435, MTT assay; value (SD, n) where given; read-out: MB-435 Breast (IC50 µM)
Method in brief: (§1)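 Step one: plate 1000 to 2500 cells per well and let them recover overnight. Step two: treat with compound for 3 days. Step three: add MTT, dissolve dye in DMSO, read absorbance at 570 nm and determine IC50.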

NCI-H460 = assay: In vitro proliferation assay (MTT), NCI-H460; assay type: cell-based; conditions: Homo sapiens, NCI-H460; MTT assay; value (SD, n) where given; read-out: H-460 Lung (IC50 µM)
Description: (§2) The proliferation of tumor cells can be measured using a tetrazolium salt-based assay known as the MTT (3-[4,5-Dimethylthiazol-2-yl]-2,5-diphenyltetrazolium bromide) assay. The proliferation test is performed essentially as described by Carmichael et al., Cancer Res. 47: 936-942, 1987. For the assay, the cell lines are plated onto 96 well plates at 1000 to 2500 cells/well (depending on the properties of the individual cell lines), left to attach and recover overnight. […] After 3 days, the cells are incubated with MTT dye (3-[4,5-Dimethylthiazol-2-yl]-2,5-diphenyltetrazolium bromide, Sigma # M5655, 10 mg/ml in Hank's Buffered Saline) to estimate the amount of live cells remaining vs. concentration for the test compounds. Specifically, MTT solution is added to a final concentration of […] and the plates incubated at 37 C for 2 to 4 hr. The MTT and culture medium is then removed from the cultures and 200 µl of DMSO is added to solubilize the dye from the cell layer. The absorbance at 570 nm is determined for each culture using a Spectramax plate reader (Molecular Devices).
(§3) IC50s were determined from the raw data from either the MTT or SRB assays.
All of the cell lines were obtained from American Type Tissue Collection, with the ATCC accession number in parentheticals. MCF-7 and MDA-MB-231 cells were grown in improved minimum essential medium (Biofluids) without phenol red, supplemented with 5 % fetal bovine serum, 0.01 mg/ml gentamicin and 3 mM L-glutamine. All of the other cell lines were grown in RPMI 1640 medium (Life Technologies) supplemented with 5 % fetal bovine serum, 0.01 mg/ml gentamicin and 3 mM L-glutamine TABLE 3

PC-3 = assay: In vitro proliferation assay (MTT), PC-3; assay type: cell-based, human; conditions: Homo sapiens, PC-3, MTT assay; value (SD, n) where given; read-out: PC-3 Prostate (IC50 µM)
Method in brief: as §1

Colo-205 = assay: In vitro proliferation assay (MTT), Colo-205; assay type: cell-based; conditions: Homo sapiens, COLO 205; MTT assay; value (SD, n) where given; read-out: Colo-205 Colon (IC50 µM)
Description: as §2, §3

cdk1/cyclin B = cdk1/cyclin B (Homo sapiens, UniProt P06493); assay: Cyclin-dependent kinase assay, cdk1/cyclin B; conditions: CDK1 IC50, nM, Histone H1, 10 µM ATP
Sequence of cdk1/cyclin B (P06493 whole entry): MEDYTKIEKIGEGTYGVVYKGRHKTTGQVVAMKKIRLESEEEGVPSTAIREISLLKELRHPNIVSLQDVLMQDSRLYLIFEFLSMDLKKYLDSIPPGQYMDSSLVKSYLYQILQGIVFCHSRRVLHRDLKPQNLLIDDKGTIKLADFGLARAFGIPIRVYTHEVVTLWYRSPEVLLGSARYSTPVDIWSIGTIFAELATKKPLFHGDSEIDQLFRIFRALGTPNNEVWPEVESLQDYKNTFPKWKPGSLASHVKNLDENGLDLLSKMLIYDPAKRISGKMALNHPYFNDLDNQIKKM
Sequence of cdk1/cyclin B (P14635 whole entry partner): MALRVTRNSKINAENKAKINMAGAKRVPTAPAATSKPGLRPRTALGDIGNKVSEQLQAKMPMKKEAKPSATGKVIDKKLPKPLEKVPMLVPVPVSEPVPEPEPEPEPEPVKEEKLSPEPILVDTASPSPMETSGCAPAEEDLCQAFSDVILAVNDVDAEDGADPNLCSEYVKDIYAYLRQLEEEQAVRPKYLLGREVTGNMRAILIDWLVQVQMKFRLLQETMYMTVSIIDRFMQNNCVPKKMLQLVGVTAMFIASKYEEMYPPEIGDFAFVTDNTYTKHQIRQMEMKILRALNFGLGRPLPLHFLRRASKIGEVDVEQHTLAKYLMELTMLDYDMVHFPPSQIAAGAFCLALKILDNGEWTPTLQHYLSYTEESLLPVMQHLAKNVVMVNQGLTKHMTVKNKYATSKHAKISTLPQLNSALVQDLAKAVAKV

cdk2/cyclin E = cdk2/cyclin E (Homo sapiens, UniProt P24941); assay: Cyclin-dependent kinase assay, cdk2/cyclin E; conditions: CDK2 IC50, nM, GST-pRb substrate, 10 µM ATP

Sequence of cdk4/cyclin D1 (P11802 whole entry): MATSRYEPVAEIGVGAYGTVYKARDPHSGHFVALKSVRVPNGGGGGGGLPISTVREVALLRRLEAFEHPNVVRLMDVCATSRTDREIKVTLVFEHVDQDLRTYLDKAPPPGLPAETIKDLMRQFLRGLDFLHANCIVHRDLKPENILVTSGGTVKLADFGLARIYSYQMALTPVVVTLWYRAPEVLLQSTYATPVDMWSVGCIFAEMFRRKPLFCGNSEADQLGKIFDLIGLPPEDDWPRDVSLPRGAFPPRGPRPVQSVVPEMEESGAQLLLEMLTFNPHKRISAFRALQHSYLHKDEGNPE
Sequence of cdk4/cyclin D1 (P24385 whole entry partner): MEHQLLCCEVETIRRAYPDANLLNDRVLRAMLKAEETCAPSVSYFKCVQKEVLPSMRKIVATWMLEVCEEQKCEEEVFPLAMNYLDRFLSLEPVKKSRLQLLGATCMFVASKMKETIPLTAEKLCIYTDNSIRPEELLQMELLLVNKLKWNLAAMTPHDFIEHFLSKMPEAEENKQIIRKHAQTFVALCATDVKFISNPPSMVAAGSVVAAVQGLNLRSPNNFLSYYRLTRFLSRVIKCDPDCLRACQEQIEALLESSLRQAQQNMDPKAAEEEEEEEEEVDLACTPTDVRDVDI

pIC50 (cdk4/cyclin D1) | IC50 (MDA-MB-435) | IC50 (NCI-H460) | IC50 (PC-3) | IC50 (Colo-205) | IC50 (cdk1/cyclin B) | IC50 (cdk2/cyclin E) | SMILES
6.39 | 0.3 µM | 0.31 µM | 0.38 µM | 0.11 µM | 59 nM | 93 nM | CCC(C(=O)N1CCC(Nc2nc(N[C@H]3CC[C@H](N)CC3)nc3c2ncn3C2CCCC2)CC1)c1ccccc1 (relative stereo) [compound 41, trans-1-{4-[2-(4-Amino-cyclohexylamino)-9-cyclopentyl-9H-purin-6-ylamino]-piperidin-1-yl}-2-phenyl-butan-1-one dihydrochloride]
7.16 | 0.18 µM | 0.29 µM | 0.5 µM | 0.21 µM | 7 nM | 8 nM | N[C@H]1CC[C@H](Nc2nc(NC3CCN(S(=O)(=O)c4ccccc4)CC3)c3ncn(C4CCCC4)c3n2)CC1 [compound 105, trans-N^2-(4-Amino-cyclohexyl)-N^6-(1-benzenesulfonyl-piperidin-4-yl)-9-cyclopentyl-9H-purine-2,6-diamine dihydrochloride]
5.69 | 0.17 µM | 0.19 µM | 0.16 µM | 0.04 µM | 105 nM | 5 nM | N[C@H]1CC[C@H](Nc2nc(NC3CCN(C(=O)COc4ccc(Cl)cc4)CC3)c3ncn(C4CCCC4)c3n2)CC1 [compound 31, trans-1-{4-[2-(4-Amino-cyclohexylamino)-9-cyclopentyl-9H-purin-6-ylamino]-piperidin-1-yl}-2-(4-chloro-phenoxy)-ethanone dihydrochloride]
6.15 | 0.75 µM | 0.18 µM | 0.86 µM | 0.06 µM | 74 nM | 137 nM | COc1ccc(C(=O)N2CCC(Nc3nc(N[C@H]4CC[C@H](N)CC4)nc4c3ncn4C3CCCC3)CC2)cc1 [compound 8, trans-1-{4-[2-(4-Amino-cyclohexylamino)-9-cyclopentyl-9H-purin-6-ylamino]-piperidin-1-yl}-1-(4-methoxy-phenyl)-methanone dihydrochloride]
6.26 | 0.69 µM | > 50 µM | 0.78 µM | > 50 µM | 64 nM | 98 nM | N[C@H]1CC[C@H](Nc2nc(NC3CCN(C(=O)c4ccc(F)cc4)CC3)c3ncn(C4CCCC4)c3n2)CC1 [compound 1, trans-1-{4-[2-(4-Amino-cyclohexylamino)-9-cyclopentyl-9H-purin-6-ylamino]-piperidin-1-yl}-1-(4-fluoro-phenyl)-methanone dihydrochloride]
5.77 | 0.26 µM | 0.23 µM | 0.2 µM | < 0.02 µM | 15 nM | 32 nM | N[C@H]1CC[C@H](Nc2nc(NC3CCN(C(=O)COCc4ccccc4)CC3)c3ncn(C4CCCC4)c3n2)CC1 [compound 37, trans-1-{4-[2-(4-Amino-cyclohexylamino)-9-cyclopentyl-9H-purin-6-ylamino]-piperidin-1-yl}-2-benzyloxy-ethanone dihydrochloride]
6.12 | 0.8 µM | 0.14 µM | 1.24 µM | < 0.02 µM | 49 nM | 57 nM | N[C@H]1CC[C@H](Nc2nc(NC3CCN(C(=O)c4cccs4)CC3)c3ncn(C4CCCC4)c3n2)CC1 [compound 10, trans-1-{4-[2-(4-Amino-cyclohexylamino)-9-cyclopentyl-9H-purin-6-ylamino]-piperidin-1-yl}-1-thiophen-2-yl-methanone dihydrochloride]
6.36 | 0.17 µM | 0.24 µM | 0.21 µM | 0.16 µM | 23 nM | 66 nM | N[C@H]1CC[C@H](Nc2nc(NC3CCN(C(=O)C4CCC4)CC3)c3ncn(C4CCCC4)c3n2)CC1 [compound 63, trans-1-{4-[2-(4-Amino-cyclohexylamino)-9-cyclopentyl-9H-purin-6-ylamino]-piperidin-1-yl}-1-cyclobutyl-methanone dihydrochloride]
6.80 | 0.44 µM | 0.65 µM | 0.76 µM | 0.25 µM | 27 nM | 9 nM | Cc1noc(C)c1S(=O)(=O)N1CCC(Nc2nc(N[C@H]3CC[C@H](N)CC3)nc3c2ncn3C2CCCC2)CC1 [compound 110, trans-N^2-(4-Amino-cyclohexyl)-9-cyclopentyl-N^6-[1-(3,5-dimethyl-isoxazole-4-sulfonyl)-piperidin-4-yl]-9H-purine-2,6-diamine dihydrochloride]

The next lines start with the molecule.

SMILES | pIC50 (cdk4/cyclin D1) | IC50 (MDA-MB-435) | IC50 (NCI-H460) | IC50 (PC-3) | IC50 (Colo-205) | IC50 (cdk1/cyclin B) | IC50 (cdk2/cyclin E)
COC(=O)c1ccc(C(=O)N2CCC(Nc3nc(N[C@H]4CC[C@H](N)CC4)nc4c3ncn4C3CCCC3)CC2)cc1 [compound 11, trans-4-(1-{4-[2-(4-Amino-cyclohexylamino)-9-cyclopentyl-9H-purin-6-ylamino]-piperidin-1-yl}-methanoyl)-benzoic acid methyl ester dihydrochloride] | 6.21 | 0.57 µM | 0.39 µM | 0.72 µM | 0.27 µM | 46 nM | 78 nM
N[C@H]1CC[C@H](Nc2nc(NC3CCN(C(=O)c4cnc5ccccc5n4)CC3)c3ncn(C4CCCC4)c3n2)CC1 [compound 4, trans-1-{4-[2-(4-Amino-cyclohexylamino)-9-cyclopentyl-9H-purin-6-ylamino]-piperidin-1-yl}-1-quinoxalin-2-yl-methanone dihydrochloride] | 6.19 | 0.7 µM | 0.33 µM | 0.72 µM | 0.16 µM | 197 nM | 339 nM
N[C@H]1CC[C@H](Nc2nc(NC3CCN(C(=O)CCc4ccccc4)CC3)c3ncn(C4CCCC4)c3n2)CC1 [compound 33, trans 1-{4-[2-(4-Amino-cyclohexylamino)-9-cyclopentyl-9H-purin-6-ylamino]-piperidin-1-yl}-3-phenyl-propan-1-one dihydrochloride] | 6.37 | 0.26 µM | 0.24 µM | 0.33 µM | 0.07 µM | 58 nM | 30 nM
CC1(C)C2CCC1(CS(=O)(=O)N1CCC(Nc3nc(N[C@H]4CC[C@H](N)CC4)nc4c3ncn4C3CCCC3)CC1)C(=O)C2 (stereo partly drawn) [compound 107, trans-1-{4-[2-(4-Amino-cyclohexylamino)-9-cyclopentyl-9H-purin-6-ylamino]-piperidine-1-sulfonylmethyl}-7,7-dimethyl-bicyclo[2.2.1]heptan-2-one dihydrochloride] | 8.00 | 0.11 µM | 0.29 µM | 0.41 µM | 0.18 µM | 250 nM | 35 nM
N[C@H]1CC[C@H](Nc2nc(NC3CCN(C(=O)c4ccc(C(F)(F)F)cc4)CC3)c3ncn(C4CCCC4)c3n2)CC1 [compound 2, trans-1-{4-[2-(4-Amino-cyclohexylamino)-9-cyclopentyl-9H-purin-6-ylamino]-piperidin-1-yl}-1-(4-trifluoromethyl-phenyl)-methanone dihydrochloride] | 6.37 | 0.26 µM | 0.15 µM | 1.17 µM | < 0.02 µM | 48 nM | 92 nM
N[C@H]1CC[C@H](Nc2nc(NC3CCN(C(=O)COc4ccccc4)CC3)c3ncn(C4CCCC4)c3n2)CC1 [compound 28, trans-1-{4-[2-(4-Amino-cyclohexylamino)-9-cyclopentyl-9H-purin-6-ylamino]-piperidin-1-yl}-2-phenoxy-ethanone dihydrochloride] | 6.85 | 0.21 µM | 0.21 µM | 0.22 µM | 0.09 µM | 20 nM | 52 nM
